Test results taken from patent US4794197A, “All-cis-1,3,5-triamino-2,4,6,-cyclohexanetriol derivatives, their use, processes for their preparation and pharmaceutical preparations containing them” (priority 1985, dated 1988).
Like-named read-outs stand apart in the source and are kept apart here.

What was measured:
[1] = test system: rats with an excessively high iron level; assay: elimination of iron from rats with an excessively high iron level by excretion in urine and faeces after intravenous administration; type: in vivo; conditions: over 72 hours, by comparison with Desferal (= 1)
Source text: (§1) all-cis-1,3,5-Triamino-2,4,6-cyclohexanetriol (10), all-cis-1,3,5-tris-(dimethylamino)-2,4,6-cyclohexane triol hydrochloride (12a), all-cis-1,3,5-tris-(trimethylammonio)-2,4,6-[…] (19c) and all-cis-1,3,5-tris-(succinoylamino)-2,4,6-cyclohexanetriol are found to have the following values in mg/kg of body weight in the orientating LD50 -toxicity test on white mice after intravenous injection: 158, 440, 235 and >1000. The elimination of iron from rats with an excessively high iron level by excretion in the urine and faeces after intravenous administration is shown in the following Table by comparison with the figures obtained with Desferal. The rates of excretion were measured over 72 hours after application.

[2] = orientating LD50-toxicity test on white mice after intravenous injection; conditions: mouse, in vivo
Source text: as §1

[3] = general statement on toxicity
pK-values (approximate) = type: physicochemical
[4] = Response to iron(III): keeping iron(III) in solution by complex formation; type: physicochemical
[5] = Response to β-FeO(OH): dissolution of this rust; conditions: in words
[6] = parenteral; cited from earlier work
[7] = cited from earlier work
Solubility = type: physicochemical
[8] = white mice, intravenous injection, orientating test, read-out: LD50
[9] = pK4, fourth lowest value of the list
[10] = pK5, fifth lowest value of the list
[11] = pK6, sixth lowest value of the list
[12] = pK2, second lowest value of the list
[13] = pK3, third lowest value of the list

For `C[N+](C)(C)[C@H]1[C@@H](O)[C@@H]([N+](C)(C)C)[C@@H](O)[C@@H]([N+](C)(C)C)[C@H]1O` [Example 19c], the “elimination of iron by excretion in the faeces” value (“elimination … in the faeces” for short) [1] was 0.5, the “elimination of iron by excretion in the urine” value (from here on “elimination … in the urine”) [1] was 0.2 and the LD50 [2, 8] was 235 mg/kg.
In the case of `N[C@H]1[C@@H](O)[C@@H](N)[C@@H](O)[C@@H](N)[C@H]1O` [Example 10, all-cis-1,3,5-Triamino-2,4,6-cyclohexanetriol], the “elimination … in the faeces” value [1] is reported as 0.2, the “elimination … in the urine” value [1] is reported as 0.1 and the LD50 [2, 8] is reported as 158 mg/kg. The toxicity [3] was “relatively low toxicity”.
`O=C(O)CN[C@H]1[C@@H](O)[C@@H](NCC(=O)O)[C@@H](O)[C@@H](NCC(=O)O)[C@H]1O` [Example 13, all-cis-1,3,5-Tris-(ammonioacetic acid)-2,4,6-cyclohexanetriol trichloride] showed a pKa (pK-values (approximate); [9]) of ~5.7, a pKa (pK-values (approximate); [10]) of ~7.8 and a pKa (pK-values (approximate); [11]) of ~8.9. The pKa (pK-values (approximate); three lowest pK-values) was < 3 and the “precipitation of iron hydroxide” value ([4]; ligand:iron ratio of 1:1, pH higher than about 11) was “Iron hydroxide precipitates”.
In the case of `CCCCN(CC(=O)O)[C@H]1[C@@H](O)[C@@H](N(CCCC)CC(=O)O)[C@@H](O)[C@@H](N(CCCC)CC(=O)O)[C@H]1O` [Example 15, all-cis-1,3,5-(N-butylammonioacetic acid)-2,4,6-cyclohexanetriol trichloride], the “Response to β-FeO(OH)” value [5] is reported as “Identical to Examples 13 and 14”.
Work on `O=C(O)CCN[C@H]1[C@@H](O)[C@@H](NCCC(=O)O)[C@@H](O)[C@@H](NCCC(=O)O)[C@H]1O` [Example 12] yielded a pKa (pK-values (approximate); pK1, lowest value of the list) of ~6.2, a pKa (pK-values (approximate); [12]) of ~8.2 and a pKa (pK-values (approximate); [13]) of ~9.7. The “pH range in which a solution containing Fe(III) and ligand is clear” value ([4]; Fe(III):ligand=1:1, result in words) was “clear over the entire ranges of pH”, the “solubility of the iron complex” value ([4]; pH 3 to 6) was “relatively sparingly soluble” and the “maximum Fe(III) kept in solution per ligand” value ([4]; pH 7.5) was ≤ 2 Fe(III) per ligand.
For `CC(=O)N(O)CCCCCNC(=O)CCC(=O)N(O)CCCCCNC(=O)CCC(=O)N(O)CCCCCN` [Desferal, 30-amino-3,14,25-trihydroxy-3,9,14,20,25-pentaaza-2,10,13,21,24-triacontane-pentanone-methane sulphonate, reference compound], the “elimination … in the faeces” value [1] is given as 1, the “elimination … in the urine” value [1] is given as 1 and the “half life in the body” value [6] is given as “very short”. For the same compound, the “serious side effects after prolonged administration” value [7] was “visual disturbances”.
Work on `O=P(O)(O)CN[C@H]1[C@@H](O)[C@@H](NCP(=O)(O)O)[C@@H](O)[C@@H](NCP(=O)(O)O)[C@H]1O` [Example 11, all-cis-1,3,5-Tris-(ammoniomethanephosphonic acid)-2,4,6-cyclohexanetriol trichloride] yielded a pKa (pK-values (approximate); pK1, lowest value of the list) of ~5.2, a pKa (pK-values (approximate); [12]) of ~6 and a pKa (pK-values (approximate); [13]) of ~6.5. It also gave a pKa (pK-values (approximate); [9]) of ~7, a pKa (pK-values (approximate); [10]) of ~8 and a pKa (pK-values (approximate); [11]) of ~9.5.
For `O=C(O)CCC(=O)N[C@H]1[C@@H](O)[C@@H](NC(=O)CCC(=O)O)[C@@H](O)[C@@H](NC(=O)CCC(=O)O)[C@H]1O` [Example 16, all-cis-1,3,5a-tris-(succinoylamino)-2,4,6-cyclohexanetriol], the LD50 [2, 8] was > 1000 mg/kg, the Solubility (Solubility; cyclohexane) was “sparingly” and the Solubility (Solubility; water) was “Readily”. For the same compound, the Solubility (Solubility; water/EtOH) was “Readily” and the Solubility (Solubility; water/MeOH) was “Readily”.
`N#CCN[C@H]1[C@@H](O)[C@@H](NCC#N)[C@@H](O)[C@@H](NCC#N)[C@H]1O` [all-cis-1,3,5-tris-(aminoacetic acid nitrile)-2,4,6-cyclohexanetriol] gave a pKa (pK-values (approximate); highest pK of nitrile intermediate) of ~6.5 and a pKa (pK-values (approximate); next lowest pK of nitrile intermediate) of ~3.
With `CN(C)[C@H]1[C@@H](O)[C@@H](N(C)C)[C@@H](O)[C@@H](N(C)C)[C@H]1O` [Example 12b, all-cis-1,3,5-Tris-(dimethylammonio)-2,4,6-cyclohexanetriol sulphate] the “solubility in boiling methanol” value (Solubility; boiling methanol) was “virtually insoluble”.
In the case of `CN(C)[C@H]1[C@@H](O)[C@@H](N(C)C)[C@@H](O)[C@@H](N(C)C)[C@H]1O` [Example 12a, all-cis-1,3,5-Tris-(dimethylammonio)-2,4,6-cyclohexanetriol trichloride dihydrate], the “elimination … in the faeces” value [1] is reported as 0.5, the “elimination … in the urine” value [1] is reported as 1 and the LD50 ([2]; iv) is reported as 440 mg/kg.
With `N#CCCN[C@H]1[C@@H](O)[C@@H](NCCC#N)[C@@H](O)[C@@H](NCCC#N)[C@H]1O` [all-cis-1,3,5-tris-(2'-aminopropionitrile)-2,4,6-cyclohexanetriol] the pKa (pK-values (approximate); pK1, lowest value of the list) was ~3, the pKa (pK-values (approximate); [12]) was ~4.5 and the pKa (pK-values (approximate); [13]) was ~6.3.
